Drawing on US20230091047A1 (priority 2019, published 2023), this text covers EC50 and CC50 for 28 molecules.

Like-named read-outs stand apart in the source and are kept apart here. A value given as a limit tells only on which side of the number the result lay.

Data set [1] has as its system HBV (HepG2.117 cell line, inducibly HBV producing). The data set can be described thus: Anti-HBV activity: intracellular HBV DNA by real-time PCR in HepG2.117 cells after 3 days of treatment. It is filed as cell-based, hepatitis B virus. To be noted: read-out: EC50 (μM, mean value). The procedure, abridged: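 Tet-off HepG2.117; HBV replication induced (no doxycycline); serial compound dilutions, 3 d; intracellular HBV DNA by real-time PCR, HBV-specific primers/probe.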

The nature of data set [2]: in vitro. The following applies: human, HepG2 or HepG2.117 cells, ATPlite, mean value. It is filed as cell-based. In short, it runs like this:
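Luminescent ATP quantitation served as the viability endpoint following a 3- or 4-day incubation with test compounds.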
For orientation: In ATP-based viability assays light output follows the ATP content of the culture.

[3] abbreviates: Hepatitis B virus, HepG2.117, 72 h, HepG2.117 cells, 3 days of treatment, intracellular HBV DNA by real-time PCR, mean value.
Where [4] appears, read: 3-days incubation (unmarked values).
The mark [5] stands for this setting: Hepatitis B virus, HepG2.117, 72 h, HepG2.117 cells, intracellular HBV DNA by real-time PCR, 3 days of treatment, mean value.
Where [6] appears, read: 3-days incubation (not marked with *).

Take `COc1ccccc1-n1c(N[C@H](C)CO)nc2c(c1=O)CCN(C(=O)c1ccc(Cl)c(Cl)c1)C2` (single isomer, unassigned) [Compound C62A, 7-(3,4-dichlorobenzoyl)-2-{[(2*R)-1-hydroxypropan-2-yl]amino}-3-(2-methoxyphenyl)-5,6,7,8-tetrahydropyrido[3,4-d]pyrimidin-4(3H)-one]: the EC50 (in general, the concentration giving half of the maximal effect) in data set [1] (setting [3]) was 9.88 µM. Moreover, the CC50 (commonly the concentration that lowers cell viability or growth by half) at 3 days in data set [2] (setting [4]) was greater than 50 µM.
For the molecule `CNC(=O)c1cc(-n2c(O)nc3c(c2=O)C[C@@H](C)N(C(=O)c2ccc(Cl)c(C(F)(F)F)c2)C3)n(C)n1` [Compound C653], the EC50 in data set [1] (setting [5]) was greater than 2.5 µM. In data set [2] (setting [6]), this molecule had a CC50 at 3 days greater than 50 µM.
Turning to `COc1ccc(CNc2nc3c(c(=O)n2C2CCCN(S(C)(=O)=O)C2)CCN(C(=O)c2ccc(Cl)c(Cl)c2)C3)cc1` (centres unmarked) [Compound C83, 7-(3,4-dichlorobenzoyl)-3-[1-(methanesulfonyl)piperidin-3-yl]-2-{[(4-methoxyphenyl)methyl]amino}-5,6,7,8-tetrahydropyrido[3,4-d]pyrimidin-4(3H)-one], the EC50 in data set [1] (setting [3]) came to 1.44 µM. In data set [2] (setting [4]), the CC50 at 3 days was greater than 50 µM.
For `CNC(=O)c1ccc(-n2c(NC(C)C)nc3c(c2=O)C[C@@H](C)N(C(=O)c2cc4c(Br)cccc4[nH]2)C3)cc1` [Compound C569], the EC50 in data set [1] (setting [5]) turned out to be 0.01 µM. Also, the CC50 at 3 days in data set [2] (setting [6]) amounted to 21.4 µM.
For `CNC(=O)c1ccc(-n2c(NC(C)C)nc3c(c2=O)C[C@@H](C)N(C(=O)c2cccc(Cl)c2OC)C3)cc1` [Compound C504], in that order: 1.01 µM and greater than 50 µM.
For `CNC(=O)c1cc(-n2c(N[C@@H](C)c3ccc(OC(F)(F)F)cc3)nc3c(c2=O)C[C@@H](C)N(C(=O)c2ccc(Cl)c(Cl)c2)C3)[nH]n1` [Compound C607], in that order: 0.14 µM and 11.4 µM.
As for `CNC(=O)c1cnc(-n2c(N[C@@H](C)c3ccc(C(F)(F)F)cc3)nc3c(c2=O)C[C@@H](C)N(C(=O)c2ccc(Cl)c(Cl)c2)C3)cn1` [Compound C615], the EC50 in data set [1] (setting [5]) is 0.13 µM. This molecule came in with a CC50 at 3 days in data set [2] (setting [6]) greater than 50 µM.
For `CNC(=O)c1ccc(-n2c(N[C@@H](C)c3ccc(F)cc3)nc3c(c2=O)C[C@@H](C)N(C(=O)c2ccc(Cl)c(C(F)(F)F)c2)C3)cc1` [Compound C651], in that order: 0.05 µM and 8.8 µM.
As for `CNC(=O)c1ccc(-n2c(N[C@H](C)c3nccs3)nc3c(c2=O)C[C@@H](C)N(C(=O)c2ccc(Cl)c(Cl)c2)C3)cc1` (single isomer, unassigned) [Compound C434a], the EC50 in data set [1] (setting [5]) came out at 0.99 µM. This molecule gave a CC50 at 3 days in data set [2] (setting [6]) greater than 50 µM.
For `CNC(=O)c1ccc(-n2c(N[C@H]3C[C@@H]3c3ccc(OC)cc3)nc3c(c2=O)C[C@@H](C)N(C(=O)c2ccc(Cl)c(Cl)c2)C3)cc1` [Compound C452], the EC50 in data set [1] (HepG2.117 cells, intracellular HBV DNA by real-time PCR, 3 days of treatment, mean value) was found to be 2.91 µM. In data set [2] (setting [6]), the CC50 at 3 days was greater than 50 µM.
With `CNC(=O)c1ccc(-n2c(NC(C)c3ccc(C(F)(F)F)cc3)nc3c(c2=O)C[C@@H](C)N(C(=O)c2ccc(Cl)c(Cl)c2)C3)cc1` (some centres unmarked) [Compound C413], the EC50 in data set [1] (setting [5]) was determined as 0.15 µM. The CC50 at 3 days in data set [2] (setting [6]) was 6.5 µM.
Consider `COc1ccccc1-n1c(NCc2cncs2)nc2c(c1=O)CCN(C(=O)c1ccc(Cl)c(Cl)c1)C2` [Compound C19, 7-(3,4-dichlorobenzoyl)-3-(2-methoxyphenyl)-2-{[(1,3-thiazol-5-yl)methyl]amino}-5,6,7,8-tetrahydropyrido[3,4-d]pyrimidin-4(3H)-one], for which the EC50 in data set [1] (setting [3]) was 8.77 µM. The same molecule had a CC50 at 3 days in data set [2] (setting [4]) greater than 50 µM.
For the molecule `COc1ccc(CNc2nc3c(c(=O)n2-c2ccc(S(C)(=O)=O)cc2)CC(c2ccc(F)cc2)N(C(=O)c2ccc(Cl)c(Cl)c2)C3)cc1` (centres unmarked) [Compound C109, 7-(3,4-dichlorobenzoyl)-6-(4-fluorophenyl)-3-[4-(methanesulfonyl)phenyl]-2-{[(4-methoxyphenyl)methyl]amino}-5,6,7,8-tetrahydropyrido[3,4-d]pyrimidin-4(3H)-one], the EC50 in data set [1] (Hepatitis B virus, HepG2.117, 72 h) worked out at 2.11 µM. In addition, the CC50 at 3 days in data set [2] (setting [4]) was greater than 50 µM.
Consider `CCC1Cc2c(nc(NC(C)C)n(-c3ccc(S(C)(=O)=O)cc3)c2=O)CN1C(=O)c1ccc(Cl)c(Cl)c1` (centres unmarked) [Compound C158, 7-(3,4-dichlorobenzoyl)-6-ethyl-3-[4-(methanesulfonyl)phenyl]-2-[(propan-2-yl)amino]-5,6,7,8-tetrahydropyrido[3,4-d]pyrimidin-4(3H)-one], for which the concentration giving a half-maximal response (EC50) in data set [1] (setting [3]) came to 1.14 µM. Also, the CC50 at 3 days in data set [2] (setting [4]) was greater than 50 µM.
Consider `COc1ccccc1-n1c(OC)nc2c(c1=O)CCN(C(=O)c1ccc(Cl)c(Cl)c1)C2` [Compound C54, 7-(3,4-dichlorobenzoyl)-2-methoxy-3-(2-methoxyphenyl)-5,6,7,8-tetrahydropyrido[3,4-d]pyrimidin-4(3H)-one], for which the EC50 in data set [1] (setting [3]) was 4.59 µM. In data set [2] (setting [4]), this molecule yielded a CC50 at 3 days of 29.7 µM.
Turning to `CC(C)Nc1nc2c(c(=O)n1-c1ccc(S(C)(=O)=O)cc1)CCN(C(=O)c1cc3ccc(F)cc3[nH]1)C2` [Compound C137, 7-(6-fluoro-1H-indole-2-carbonyl)-3-[4-(methanesulfonyl)phenyl]-2-[(propan-2-yl)amino]-5,6,7,8-tetrahydropyrido[3,4-d]pyrimidin-4(3H)-one], the EC50 in data set [1] (setting [3]) was 0.3 µM. The molecule further came in with a CC50 at 3 days in data set [2] (setting [4]) greater than 50 µM.
Take `CC(C)Nc1nc2c(c(=O)n1-c1ccc(S(C)(=O)=O)cc1)CCN(C(=O)c1ccc3occc3c1)C2` [Compound C132, 7-(1-benzofuran-5-carbonyl)-3-[4-(methanesulfonyl)phenyl]-2-[(propan-2-yl)amino]-5,6,7,8-tetrahydropyrido[3,4-d]pyrimidin-4(3H)-one]: the EC50 in data set [1] (setting [3]) came out at 0.7 µM. The molecule also returned a CC50 at 3 days in data set [2] (setting [4]) greater than 50 µM.
`CNC(=O)c1ccc(-n2c(NC(C)C)nc3c(c2=O)C[C@@H](C)N(C(=O)c2ccc(Br)cc2Cl)C3)cc1` [Compound C565]: in data set [1] (setting [5]), the EC50 was found to be 0.68 µM. This molecule also returned a CC50 at 3 days in data set [2] (setting [6]) greater than 50 µM.
The like results for `CNc1noc2cc(-n3c(N[C@@H](C)c4ccc(OC(F)(F)F)cc4)nc4c(c3=O)C[C@@H](C)N(C(=O)c3ccc(Cl)c(Cl)c3)C4)ccc12` [Compound C616] were, in that order, 0.19 µM and greater than 50 µM.
For `CNC(=O)c1ccc(-n2c(NCC(CO)C3CC3)nc3c(c2=O)C[C@@H](C)N(C(=O)c2ccc(Cl)c(Cl)c2)C3)cc1` (some centres unmarked) [Compound C482], in that order: 8.34 µM and greater than 50 µM.
In the case of `CNC(=O)c1ccc(-n2c(N3CC[C@@H]3c3ccccc3)nc3c(c2=O)C[C@@H](C)N(C(=O)c2ccc(Cl)c(Cl)c2)C3)cc1` (single isomer, unassigned) [Compound C348, 4-[(6R)-7-(3,4-dichlorobenzoyl)-6-methyl-4-oxo-2-[(2*R)-2-phenylazetidin-1-yl]-5,6,7,8-tetrahydropyrido[3,4-d]pyrimidin-3(4H)-yl]-N-methylbenzamide], the EC50 in data set [1] (setting [3]) amounted to 0.2 µM. The same molecule came in with a CC50 at 3 days in data set [2] (setting [4]) of 31.2 µM.
On to `CNC(=O)c1cnc(-n2c(NC)nc3c(c2=O)C[C@@H](C)N(C(=O)c2ccc(Cl)c(Cl)c2)C3)cn1` [Compound C287, 5-[(6R)-7-(3,4-dichlorobenzoyl)-6-methyl-2-(methylamino)-4-oxo-5,6,7,8-tetrahydropyrido[3,4-d]pyrimidin-3(4H)-yl]-N-methylpyrazine-2-carboxamide], for which the EC50 in data set [1] (setting [3]) came to 0.75 µM. This molecule also gave a CC50 at 3 days in data set [2] (setting [4]) greater than 50 µM.
The like results for `CNC(=O)c1ccc(-n2c(N[C@H](C)c3cccnc3OC)nc3c(c2=O)C[C@@H](C)N(C(=O)c2ccc(Cl)c(Cl)c2)C3)cc1` (single isomer, unassigned) [Compound C285, 4-[(6R)-7-(3,4-dichlorobenzoyl)-2-{[(1*R)-1-(2-methoxypyridin-3-yl)ethyl]amino}-6-methyl-4-oxo-5,6,7,8-tetrahydropyrido[3,4-d]pyrimidin-3(4H)-yl]-N-methylbenzamide] were, in that order, 0.37 µM and 27.6 µM.
Consider `CNC(=O)c1ccc(-n2c(NC(C)C)nc3c(c2=O)C[C@@H](C)N(C(=O)c2ccc(F)c(Cl)c2)C3)cc1` [Compound C478], for which the EC50 in data set [1] (setting [5]) worked out at 1.28 µM. The molecule further yielded a CC50 at 3 days in data set [2] (setting [6]) greater than 50 µM.
The like results for `CC(=O)Nc1ccc(-n2c(N[C@H](C)c3ccc4[nH]ncc4c3)nc3c(c2=O)C[C@@H](C)N(C(=O)c2ccc(Cl)c(Cl)c2)C3)cc1` (single isomer, unassigned) [Compound C462a] were, in that order, 1.24 µM and greater than 50 µM.
The like results for `CNC(=O)c1ccc(-n2c(N[C@H](C)c3ccc(C(F)(F)F)c(F)c3)nc3c(c2=O)C[C@@H](C)N(C(=O)c2ccc(Cl)c(Cl)c2)C3)cc1` (single isomer, unassigned) [Compound C659a] were, in that order, 0.12 µM and 6.8 µM.
For `CNC(=O)c1ccc(-n2c(N[C@H]3CCC34CCC4)nc3c(c2=O)C[C@@H](C)N(C(=O)c2ccc(Cl)c(Cl)c2)C3)cc1` (single isomer, unassigned) [Compound C346b], in that order: 0.22 µM and greater than 50 µM.
Take `CC(C)Nc1nc2c(c(=O)n1-c1ccc(N3CC[C@H](O)C3)cc1)C[C@@H](C)N(C(=O)c1ccc(Cl)c(Cl)c1)C2` [Compound C200, (6R)-7-(3,4-dichlorobenzoyl)-3-{4-[(3S)-3-hydroxypyrrolidin-1-yl]phenyl}-6-methyl-2-[(propan-2-yl)amino]-5,6,7,8-tetrahydropyrido[3,4-d]pyrimidin-4(3H)-one]: in data set [1] (setting [3]), the EC50 came to 0.2 µM. The molecule also returned a CC50 at 3 days in data set [2] (setting [4]) of 35.4 µM.
